Measurements reported in ChEMBL document CHEMBL1151017, “The synthesis of N-aryl androsterone pyrazoles as aromatase inhibitors” (Bioorg Med Chem Lett, 1997).

molecular target: T1, Aromatase (Homo sapiens, UniProt P11511); assay: Inhibition of aromatase cytochrome P450 from human placental microsomes; 800-1000
T1 sequence (P11511 whole entry): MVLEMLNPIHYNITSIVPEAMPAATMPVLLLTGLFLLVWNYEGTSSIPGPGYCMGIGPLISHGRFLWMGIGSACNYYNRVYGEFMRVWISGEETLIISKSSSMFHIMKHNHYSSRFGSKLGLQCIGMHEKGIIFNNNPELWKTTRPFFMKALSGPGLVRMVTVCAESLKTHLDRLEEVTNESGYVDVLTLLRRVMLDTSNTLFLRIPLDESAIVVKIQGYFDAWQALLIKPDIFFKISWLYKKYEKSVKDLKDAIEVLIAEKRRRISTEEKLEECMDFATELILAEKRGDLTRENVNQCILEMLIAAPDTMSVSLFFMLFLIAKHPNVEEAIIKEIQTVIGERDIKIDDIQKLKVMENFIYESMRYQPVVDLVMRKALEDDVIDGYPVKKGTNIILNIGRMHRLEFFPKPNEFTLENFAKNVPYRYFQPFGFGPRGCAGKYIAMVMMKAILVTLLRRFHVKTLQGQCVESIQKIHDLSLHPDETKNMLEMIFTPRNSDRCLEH

SMILES | IC50
CC12CCC3C(Cc4nn(C/C=C/c5ccccc5)c5c4C3(C)CCC5=O)C1CCC2=O (configuration not stated) | 800 nM

molecular target: T1, Aromatase; assay: Inhibition of cytochrome P450 19A1 aromatase from human placental microsomes

SMILES | IC50
CC12CCC3C(Cc4c5c(nn4C/C=C/c4ccccc4)C(=O)CCC53C)C1CCC2=O (configuration not stated) | 950 nM
CC12CCC3C(Cc4nn(Cc5ccc([N+](=O)[O-])cc5)c5c4C3(C)CCC5=O)C1CCC2=O (configuration not stated) | 658 nM
CC12CCC3C(Cc4c5c(nn4Cc4ccc([N+](=O)[O-])cc4)C(=O)CCC53C)C1CCC2=O (configuration not stated) | 490 nM
CC12CCC3C(Cc4nn(Cc5ccccc5)c5c4C3(C)CCC5=O)C1CCC2=O (configuration not stated) | 342 nM
CC12CCC3C(Cc4c5c(nn4Cc4ccccc4)C(=O)CCC53C)C1CCC2=O (configuration not stated) | 245 nM
CC12CCC3C(Cc4[nH]nc5c4C3(C)CCC5=O)C1CCC2=O (configuration not stated) | 236 nM
